According to patent US4731109A, “Herbicidal 2-haloacetanilides” (Monsanto Company, priority 1982, dated 1988):

Tests used:
Quackgrass [1] = assay: Herbicidal effect in a variety of soil types; format: in vivo; conditions: for selectivity factor (GR15/GR85): in soybeans
Description: The herbicide treatments were by soil incorporation with seeds planted 0.375 in (0.95 cm) deep, with 0.25 in (0.64 cm overhead irrigation. Observations were made about three weeks after treatment. Selectivity factors are shown in parenthesis.

Yellow Nutsedge = assay: Greenhouse pre-emergence GR15/GR85 selectivity test; format: in vivo
Description: (§1) A good grade of top soil is placed in aluminum pans and compacted to a depth of three-eighths to one-half inch from the top of the pan. On the top of the soil is placed a number of seeds or vegetative propagules of various plant species. The soil required to level fill the pans after seeding or adding vegetative propagules is weighed into a pan. The soil and a known amount of the active ingredient applied in a solvent or as a wettable powder suspension are thoroughly mixed, and used to cover the prepared pans. […] As an alternative procedure, the overhead irrigation may be omitted. Observations are made about 2-3 weeks after seeding and treatment.
(§2) A further guide to the effectiveness of a chemical as a selective herbicide is the "selectivity factor" ("SF") for a herbicide in given crops and weeds. The selectivity factor is a measure of the relative degree of crop safety and weed injury and is expressed in terms of the GR15 /GR85 ratio, i.e., the GR15 rate for the crop divided by the GR85 rate for the weed, both rates in kg/ha (lb/A). In the tables below, selectivity factors are shown in parenthesis following the GR85 rate for each weed; the symbol "NS" indicates "non-selective". Marginal or undetermined selectivity is indicated by a dash (--).
(§3) These weeds are commonly associated with such major crops as corn and soybeans. […] The test procedure was the same as described for Tables II and III but modified by the application of an initial overhead irrigation equivalent to 1/4" (0.64 cm) rainfall; subsequent watering was accomplished by subirrigation. "NS" means non-selective within the test limits.
(§4) Unless otherwise noted; greenhouse tests in Table VI and in other tables below involved herbicide treatments by soil incorporation and an initial overhead irrigation followed by subirrigation as described above.

Quackgrass [2] = assay: as above; format: in vivo
Description: as §1, §2, §3, §4

corn = assay: as above; format: in vivo
Description: (§5) A good grade of top soil is placed in aluminum pans and compacted to a depth of three-eighths to one-half inch from the top of the pan. On the top of the soil is placed a number of seeds or vegetative propagules of various plant species. The soil required to level fill the pans after seeding or adding vegetative propagules is weighed into a pan. The soil and a known amount of the active ingredient applied in a solvent or as a wettable powder suspension are thoroughly mixed, and used to cover the prepared pans. After treatment, the pans are given an initial overhead irrigation of eater, equivalent to one-fourth inch (0.64 cm) rainfall, then watered by subirrigation as need to give adequate moisture for germination and growth. As an alternative procedure, the overhead irrigation may be omitted. Observations are made about 2-3 weeks after seeding and treatment.
(§6) In the discussion and tables of data below, reference is made to herbicide application rates symbolized as "GR15 " and "GR85 "; these rates are given in kilograms per hectare (kg/ha) which are convertible into pounds per acre (lbs/A) by dividing the kg/ha rate by 1.12.
as §2
In Table IV pre-emergence herbicidal activity data are presented comparing the relative efficacy of the invention compounds and said prior art compounds as selective herbicides against the resistant and troublesome perennial weeds quackgrass and yellow nutsedge in soybeans and corn, respectively. These weeds are commonly associated with such major crops as corn and soybeans. The test data in Table IV were obtained under identical procedural conditions and represent two replicate runs (except for the compound of Example 9 which was present in one comparative test). The test procedure was the same as described for Tables II and III but modified by the application of an initial overhead irrigation equivalent to 1/4" (0.64 cm) rainfall; subsequent watering was accomplished by subirrigation. "NS" means non-selective within the test limits.
(§7) Additionally, pre-emergence herbicidal data from other tests have established that compounds according to this invention also selectively suppress quackgrass, yellow nutsedge and/or other weeds in one or more of the crops cotton, peanuts, bush beans and/or rape. For example, in Table VI are presented data showing the herbicidal selectivity of the compounds of Examples 1 and 2 against quackgrass in rape and snap beans. Unless otherwise noted; greenhouse tests in Table VI and in other tables below involved herbicide treatments by soil incorporation and an initial overhead irrigation followed by subirrigation as described above.

wild proso millet = assay: as above; format: in vivo, wild proso millet (panicum milicaeum); conditions: Table XIV
Description: as §1, §2, §4

rape = assay: as above; format: in vivo; conditions: Table VI
Description: as §5, §6, §2, §7
In another greenhouse test, the compounds of Examples 3-5, 9 and 10 were tested for their herbicidal efficacy against a variety of resistant annual and perennial weeds in rape.

seedling johnsongrass = assay: as above; format: in vivo; conditions: Table XIV
Description: as §1, §2, §4

alexandergrass = assay: as above; format: in vivo; conditions: Table XIV
Description: as §1, §2, §4

red rice = assay: as above; format: in vivo; conditions: Table XIV
Description: as §1, §2, §4

itchgrass = assay: as above; format: in vivo; conditions: Table XIV
Description: as §1, §2, §4

fall panicum = assay: as above; format: in vivo; conditions: Table XIV
Description: as §1, §2, §4

shattercane = assay: as above; format: in vivo; conditions: Table XIV
Description: as §1, §2, §4

Texas panicum = assay: as above; format: in vivo; conditions: Table XIV
Description: as §1, §2, §4

[3] = Drummer silty clay, Table XVII A
[4] = Drummer silty clay, Table XVII B
[5] = Drummer silty clay, Table XVII C
[6] = Wabash silty clay, Table XVII B
[7] = Wabash silty clay, Table XVII C

`CCOCN(C(=O)CCl)c1c(C)cccc1C(F)(F)F` [Example 1, N-(ethoxymethyl)-2'-trifluoromethyl-6'-methyl-2-chloroacetanilide] gave a GR85 (Quackgrass [1]; [3]) of 0.11 Kg/Ha, a GR85 (Quackgrass [1]; [4]) of 0.17 Kg/Ha and a GR85 (Quackgrass [1]; [5]) of 0.13 Kg/Ha. The GR85 (Quackgrass [1]; Florida muck, Table XVII A) was 0.52 Kg/Ha, the GR85 (Quackgrass [1]; Florida muck, Table XVII B) was 0.78 Kg/Ha and the GR85 (Quackgrass [1]; Florida muck, Table XVII C) was 0.74 Kg/Ha. For the same molecule, the GR85 (Quackgrass [1]; Florida sand, Table XVII A) was 0.2 Kg/Ha, the GR85 (Quackgrass [1]; Florida sand, Table XVII B) was 0.48 Kg/Ha and the GR85 (Quackgrass [1]; Ray silt loam, Table XVII A) was 0.22 Kg/Ha. The GR85 (Quackgrass [1]; Ray silt loam, Table XVII B) was 0.13 Kg/Ha, the GR85 (Quackgrass [1]; Ray silt loam, Table XVII C) was 0.10 Kg/Ha and the GR85 (Quackgrass [1]; Sarpy silty clay, Table XVII A) was 0.28 Kg/Ha. It also gave a GR85 (Quackgrass [1]; Sarpy silty clay, Table XVII B) of 0.10 Kg/Ha, a GR85 (Quackgrass [1]; Sarpy silty clay, Table XVII C) of 0.13 Kg/Ha and a GR85 (Quackgrass [1]; Wabash silty clay, Table XVII A) of 0.28 Kg/Ha. For the same molecule, the GR85 (Quackgrass [1]; [6]) was 0.13 Kg/Ha, the GR85 (Quackgrass [1]; [7]) was 0.07 Kg/Ha and the “selectivity factor (GR15/GR85)” value (Quackgrass [1]; [3]) was 20. For the same molecule, the “selectivity factor (GR15/GR85)” value (Quackgrass [1]; [4]) was 13, the “selectivity factor (GR15/GR85)” value (Quackgrass [1]; [5]) was 14.5 and the “selectivity factor (GR15/GR85)” value (Quackgrass [1]; Florida muck, Table XVII A) was greater than 4.5. The “selectivity factor (GR15/GR85)” value (Quackgrass [1]; Florida muck, Table XVII B) was greater than 3, the “selectivity factor (GR15/GR85)” value (Quackgrass [1]; Florida muck, Table XVII C) was greater than 3 and the “selectivity factor (GR15/GR85)” value (Quackgrass [1]; Florida sand, Table XVII A) was 10. For the same molecule, the “selectivity factor (GR15/GR85)” value (Quackgrass [1]; Florida sand, Table XVII B) was 4.5, the “selectivity factor (GR15/GR85)” value (Quackgrass [1]; Ray silt loam, Table XVII A) was 5 and the “selectivity factor (GR15/GR85)” value (Quackgrass [1]; Ray silt loam, Table XVII B) was 16.5. The “selectivity factor (GR15/GR85)” value (Quackgrass [1]; Ray silt loam, Table XVII C) was 19.5, the “selectivity factor (GR15/GR85)” value (Quackgrass [1]; Sarpy silty clay, Table XVII A) was greater than 8 and the “selectivity factor (GR15/GR85)” value (Quackgrass [1]; Sarpy silty clay, Table XVII B) was 22. The “selectivity factor (GR15/GR85)” value (Quackgrass [1]; Sarpy silty clay, Table XVII C) was greater than 16.5, the “selectivity factor (GR15/GR85)” value (Quackgrass [1]; [6]) was 17 and the “selectivity factor (GR15/GR85)” value (Quackgrass [1]; [7]) was 31.5. For the same molecule, the GR85 (Yellow Nutsedge; Table IV, Replicate #1) was 0.20 Kg/Ha, the GR85 (Yellow Nutsedge; Table IV, Replicate #2) was 0.12 Kg/Ha and the GR85 (Yellow Nutsedge; Table V) was 0.10 Kg/Ha. For the same molecule, the GR85 (Yellow Nutsedge; Table XII) was 0.24 Kg/Ha, the “selectivity with respect to yellow nutsedge in rice” value (Yellow Nutsedge; in rice) was “non-selective” and the “selectivity factor (GR15/GR85)” value (Yellow Nutsedge; yellow nutsedge in corn, Table IV, Replicate #1) was 4. For the same molecule, the “selectivity factor (GR15/GR85)” value (Yellow Nutsedge; yellow nutsedge in corn, Table IV, Replicate #2) was 6, the “selectivity factor (GR15/GR85)” value (Yellow Nutsedge; yellow nutsedge in corn, Table V) was 22 and the “selectivity factor (GR15/GR85)” value (Yellow Nutsedge; yellow nutsedge in corn, Table XII) was 2.9. The “selectivity factor (GR15/GR85)” value (Yellow Nutsedge; yellow nutsedge in cotton, Table XII) was 8, the “selectivity factor (GR15/GR85)” value (Yellow Nutsedge; yellow nutsedge in soybeans, Table IV, Replicate #1) was 15 and the “selectivity factor (GR15/GR85)” value (Yellow Nutsedge; yellow nutsedge in soybeans, Table IV, Replicate #2) was 18. The “selectivity factor (GR15/GR85)” value (Yellow Nutsedge; yellow nutsedge in soybeans, Table V) was 28, the “selectivity factor (GR15/GR85)” value (Yellow Nutsedge; yellow nutsedge in soybeans, Table XII) was 3.6 and the GR85 (Quackgrass [2]; Table IV, Replicate #1) was 0.18 Kg/Ha. The GR85 (Quackgrass [2]; Table IV, Replicate #2) was 0.16 Kg/Ha, the GR85 (Quackgrass [2]; Table V) was 0.08 Kg/Ha and the “selectivity factors relative to prior art compounds” value (Quackgrass [2]; Table V, quackgrass and yellow nutsedge in corn and soybeans) was “exceedingly higher selectivity factors”. For the same molecule, the “GR85 Rate” value (Quackgrass [2]; Table VI) was 0.12 Kg/Ha, the GR85 (Quackgrass [2]; Table XIII) was 0.07 Kg/Ha and the “selectivity against quackgrass in wheat” value (Quackgrass [2]; in wheat) was “non-selective”. The “selectivity factor (GR15/GR85)” value (Quackgrass [2]; quackgrass in corn, Table IV, Replicate #1) was 4, the “selectivity factor (GR15/GR85)” value (Quackgrass [2]; quackgrass in corn, Table IV, Replicate #2) was 5 and the “selectivity factor (GR15/GR85)” value (Quackgrass [2]; quackgrass in corn, Table V) was 27.5. The “selectivity factor (GR15/GR85)” value (Quackgrass [2]; quackgrass in corn, Table XIII) was 10, the “selectivity factor (GR15/GR85)” value (Quackgrass [2]; quackgrass in rape, Table VI) was 7 and the “selectivity factor (GR15/GR85)” value (Quackgrass [2]; quackgrass in snapbeans, Table VI) was 7. The “selectivity factor (GR15/GR85)” value (Quackgrass [2]; quackgrass in soybeans, Table IV, Replicate #1) was 17, the “selectivity factor (GR15/GR85)” value (Quackgrass [2]; quackgrass in soybeans, Table IV, Replicate #2) was 14 and the “selectivity factor (GR15/GR85)” value (Quackgrass [2]; quackgrass in soybeans, Table V) was 35. For the same molecule, the “selectivity factor (GR15/GR85)” value (Quackgrass [2]; quackgrass in soybeans, Table XIII) was 11.6, the GR15 (corn; Table IV, Replicate #1) was 0.76 Kg/Ha and the GR15 (corn; Table IV, Replicate #2) was 0.76 Kg/Ha. It also gave a GR15 (corn; Table V) of 2.2 Kg/Ha, a GR15 (corn; Table XII) of 0.69 Kg/Ha and a GR15 (corn; Table XIII) of 0.69 Kg/Ha. The GR15 (corn; corn/purple nutsedge) was 0.67 kg/ha, the “GR85 Rate” value (wild proso millet) was 1.1 Kg/Ha and the “selectivity factor (GR15/GR85)” value (wild proso millet; in soybeans) was greater than 1.0. The “GR15 Rate” value (rape) was 0.85 Kg/Ha, the “GR85 Rate” value (seedling johnsongrass) was 0.14 Kg/Ha and the “selectivity factor (GR15/GR85)” value (seedling johnsongrass; in soybeans) was greater than 8.0. For the same molecule, the “GR85 Rate” value (alexandergrass) was 0.56 Kg/Ha, the “selectivity factor (GR15/GR85)” value (alexandergrass; in soybeans) was greater than 2.0 and the “GR85 Rate” value (red rice) was 0.2 Kg/Ha. The “selectivity factor (GR15/GR85)” value (red rice; in soybeans) was greater than 5.5, the “GR85 Rate” value (itchgrass) was 1.1 Kg/Ha and the “selectivity factor (GR15/GR85)” value (itchgrass; in soybeans) was greater than 1.0. For the same molecule, the “GR85 Rate” value (fall panicum) was less than 0.07 Kg/Ha, the “selectivity factor (GR15/GR85)” value (fall panicum; in soybeans) was greater than 16 and the “GR85 Rate” value (shattercane) was 0.28 Kg/Ha. For the same molecule, the “selectivity factor (GR15/GR85)” value (shattercane; in soybeans) was greater than 4.0, the “GR85 Rate” value (Texas panicum) was 1.1 Kg/Ha and the “selectivity factor (GR15/GR85)” value (Texas panicum; in soybeans) was greater than 1.0.
